In US7655429B2, “Immunoassays for topiramate” (Seradyn, Inc., priority 2004, dated 2010):

Columns and labels:
[1] = tested on: anti-topiramate antibodies prepared with immunogen (17); test: ELISA binding inhibition study (avidity), free topiramate versus coated antigen; set-up: species or system Rabbit
Method: ELISA plates for use in an ELISA assay are prepared in order to study the polyclonal antibody prepared as described in Example 21. As such, various topiramate antigens (16), (19), and (20) are coated on different ELISA plates before being subjected to the anti-topiramate antibody and competing free topiramate. More particularly, the topiramate antigens are diluted in coating buffer, and then added to the wells of ELISA plate. After the ELISA plate is incubated for 60 min at 37° C., the solvent in the coating buffer is decanted and a blocking buffer is added to the plate. The plate is incubated again for 60 min at 37° C., and the solvent in the blocking buffer is decanted from the plate. The ELISA plate is then stored with the blocking agent in the wells at 2-8° C. for up to 1 week. The avidity of the anti-topiramate antibodies prepared with immunogen (17) for topiramate analogs are determined by a binding inhibition study. As such, samples are prepared in 1 mL of PBS at pH 7.4 with 0.1% BSA. A composition having 30% Bmax titer or 50% Bmax titer is used to divide the obtained titer value into approximately half the titer value. Using 30% Bmax, an antibody titer of 1:10,000 is diluted to 1:5,000 during the sample preparation stage. About 50 μL of topiramate at different concentrations or calibrator values, (0, 2, 4, 8, 16, 32 μg/ml) are then applied to a plate as prepared in accordance with Example 22. About 50 μL of the diluted antibody is dispensed into the plate, and the compositions in the plate are mixed for 1 min on a horizontal plate shaker. The plate is characterized by a first row not containing topiramate or anti-topiramate antibody, wherein the first row is used as a negative control. A second row not containing topiramate is used as the positive control. The plate is incubated for 60 min, and washed three times with 250 μL of PBS at pH 7.4 with 0.05% tween. About 125 μL of a diluted second antibody conjugate such as antigens (16), (19), or (20), in PBS at pH 7.4 is added to each well of the plate. Titer is determined experimentally by the plate being incubated for 60 min at 37° C. and washed 3 times with 250 μL PBS, pH 7.4 with 0.05% tween. Subsequently, about 125 μL of ABTS substrate is added to each well of the plate and incubated for 20 min.

[2] = tested on: sheep polyclonal antibodies that bind with topiramate prepared from immunogen (18); test: QMS homogeneous particle-enhanced immunoturbidimetric assay; type: binding; settings: Topiramate antigen (19) coated Latex, Polyclonal antibody R1
Method: An immunoturbidimetric or QMS® assay, which is a homogeneous particle-enhanced immunoturbidimetric experiment, is performed to test the polyclonal antibodies prepared as in Example 21. […] The assay procedure is initiated by diluting the specimen because the specimens with topiramate can be used to generate results that exceed the highest calibrator value. As such, the specimens may be diluted manually or by using an automated onboard dilution protocol. The assay is based on competition for topiramate-specific antibody binding sites between drug in the sample and drug coated onto a microparticle of topiramate-coated microparticle reagent is rapidly agglutinated in the presence of the anti-topiramate antibody reagent and in the absence of any competing drug of the sample. The rate of absorbance change is measured photometrically, and is directly proportional to the rate of agglutination of the particles. […] A concentration-dependent classic agglutination inhibition curve can be obtained, with maximum rate of agglutination at the lowest topiramate concentration (at zero μg/ml) and the lowest agglutination rate at the highest topiramate concentration (32 μg/ml). The QMS® topiramate assay is initiated after the being calibrated using a full calibration (6-point) procedure. The QMS® is performed as directed in operation manuals in accordance with the average skill of one in the art.

[3] = cited from earlier work
[4] = Antigen 16, Topiramate 2 μg/ml, Rabbit No. 5481
[5] = Antigen 16, Topiramate 2 μg/ml, Rabbit No. 5492
[6] = Antigen 16, Topiramate 4 μg/ml, Rabbit No. 5481
[7] = Antigen 16, Topiramate 4 μg/ml, Rabbit No. 5492
[8] = Antigen 16, Topiramate 8 μg/ml, Rabbit No. 5481
[9] = Antigen 16, Topiramate 8 μg/ml, Rabbit No. 5492
[10] = Antigen 16, Topiramate 16 μg/ml, Rabbit No. 5481
[11] = Antigen 16, Topiramate 16 μg/ml, Rabbit No. 5492
[12] = Antigen 16, Topiramate 32 μg/ml, Rabbit No. 5481
[13] = Antigen 16, Topiramate 32 μg/ml, Rabbit No. 5492
[14] = Antigen 19, Topiramate 2 μg/ml, Rabbit No. 5481
[15] = Antigen 19, Topiramate 2 μg/ml, Rabbit No. 5492
[16] = Antigen 19, Topiramate 4 μg/ml, Rabbit No. 5481
[17] = Antigen 19, Topiramate 4 μg/ml, Rabbit No. 5492
[18] = Antigen 19, Topiramate 8 μg/ml, Rabbit No. 5481
[19] = Antigen 19, Topiramate 8 μg/ml, Rabbit No. 5492
[20] = Antigen 19, Topiramate 16 μg/ml, Rabbit No. 5481
[21] = Antigen 19, Topiramate 16 μg/ml, Rabbit No. 5492
[22] = Antigen 19, Topiramate 32 μg/ml, Rabbit No. 5481
[23] = Antigen 19, Topiramate 32 μg/ml, Rabbit No. 5492
[24] = Antigen 20, Topiramate 2 μg/ml, Rabbit No. 5481
[25] = Antigen 20, Topiramate 2 μg/ml, Rabbit No. 5492
[26] = Antigen 20, Topiramate 4 μg/ml, Rabbit No. 5481
[27] = Antigen 20, Topiramate 4 μg/ml, Rabbit No. 5492
[28] = Antigen 20, Topiramate 8 μg/ml, Rabbit No. 5481
[29] = Antigen 20, Topiramate 8 μg/ml, Rabbit No. 5492
[30] = Antigen 20, Topiramate 16 μg/ml, Rabbit No. 5481
[31] = Antigen 20, Topiramate 16 μg/ml, Rabbit No. 5492
[32] = Antigen 20, Topiramate 32 μg/ml, Rabbit No. 5481
[33] = Antigen 20, Topiramate 32 μg/ml, Rabbit No. 5492
[34] = dose escalation add-on studies, morning serum

Abs [1, 4]: 0.29
B/Bo [1, 4]: 0.38
Abs [1, 5]: 0.25
B/Bo [1, 5]: 0.56
Abs [1, 6]: 0.26
B/Bo [1, 6]: 0.34
Abs [1, 7]: 0.20
B/Bo [1, 7]: 0.44
Abs [1, 8]: 0.18
B/Bo [1, 8]: 0.24
Abs [1, 9]: 0.15
B/Bo [1, 9]: 0.33
Abs [1, 10]: 0.15
B/Bo [1, 10]: 0.20
Abs [1, 11]: 0.13
B/Bo [1, 11]: 0.29
Abs [1, 12]: 0.11
B/Bo [1, 12]: 0.14
Abs [1, 13]: 0.01
B/Bo [1, 13]: 0.02
Abs [1, 14]: 0.33
B/Bo [1, 14]: 0.40
Abs [1, 15]: 0.31
B/Bo [1, 15]: 0.38
Abs [1, 16]: 0.25
B/Bo [1, 16]: 0.30
Abs [1, 17]: 0.23
B/Bo [1, 17]: 0.28
Abs [1, 18]: 0.20
B/Bo [1, 18]: 0.24
Abs [1, 19]: 0.19
B/Bo [1, 19]: 0.23
Abs [1, 20]: 0.18
B/Bo [1, 20]: 0.22
Abs [1, 21]: 0.17
B/Bo [1, 21]: 0.20
Abs [1, 22]: 0.15
B/Bo [1, 22]: 0.18
Abs [1, 23]: 0.15
B/Bo [1, 23]: 0.18
Abs [1, 24]: 0.32
B/Bo [1, 24]: 0.53
Abs [1, 25]: 0.45
B/Bo [1, 25]: 0.64
Abs [1, 26]: 0.30
B/Bo [1, 26]: 0.50
Abs [1, 27]: 0.41
B/Bo [1, 27]: 0.59
Abs [1, 28]: 0.25
B/Bo [1, 28]: 0.42
Abs [1, 29]: 0.38
B/Bo [1, 29]: 0.54
Abs [1, 30]: 0.22
B/Bo [1, 30]: 0.37
Abs [1, 31]: 0.38
B/Bo [1, 31]: 0.54
Abs [1, 32]: 0.18
B/Bo [1, 32]: 0.30
Abs [1, 33]: 0.28
B/Bo [1, 33]: 0.40
SMILES: CC1(C)O[C@@H]2[C@@H](CO[C@@]3(COS(N)(=O)=O)OC(C)(C)O[C@@H]23)O1 [Topiramate, 2,3:4,5-di-O-isopropylidene-beta-D-fructopyranose sulfamate]
Rate (Delta Absorbance) ([2]; Topiramate 8 μg/ml sample): 60
Rate (Delta Absorbance) ([2]; Topiramate 16 μg/ml sample): 16
Rate (Delta Absorbance) ([2]; Topiramate 32 μg/ml sample): 4
serum concentration with reduction in seizure control [3, 34]: greater than 75 μmol/L
serum concentration with significant increase in side effects [3, 34]: > 60 µM
systemic topiramate concentrations ([3]; patients receiving considerably higher doses, up to 2000 mg): ≤ 80 µmol/L
